# Counter-ions that a name gives are not always drawn.
# Test system: not given
# Assay: not given
# Settings: not given
row,Structure (SMILES),melting point [°C]
1,"Cc1ccc(C(NC(=O)Cc2ccc3c(c2)CS(=O)(=O)N3CC2CCOCC2)c2ccc(C)o2)c(C)c1 (centres unmarked) (as salt: HCl) [Cpd. 166, N-[(2,4-dimethylphenyl)(5-methylfuran-2-yl)methyl]-2-[1-(oxan-4-ylmethyl)-2,2-dioxo-1,3-dihydro-2,1-benzothiazol-5-yl]acetamide]",83
2,"Cc1ccc(C(NC(=O)C2(c3ccc4c(c3)CS(=O)(=O)N4C)CC2)c2ccc(C)o2)c(C)c1 (centres unmarked) (as salt: HCl) [Cpd. 70, N-[(2,4-dimethylphenyl)(5-methylfuran-2-yl)methyl]-1-(1-methyl-2,2-dioxo-1,3-dihydro-2,1-benzothiazol-5-yl)cyclopropane-1-carboxamide]",70
3,"Cc1ccc(C(NC(=O)Cc2ccc3c(c2)CS(=O)(=O)N3CC2CCOCC2)c2ccc(C)o2)c(Br)c1 (centres unmarked) (as salt: HCl) [Cpd. 68, N-[(2-bromo-4-methylphenyl)(5-methylfuran-2-yl)methyl]-2-[1-(oxan-4-ylmethyl)-2,2-dioxo-1,3-dihydro-2,1-benzothiazol-5-yl]acetamide]",92
4,"Cc1ccc(C(NC(=O)Cc2ccc3c(ccn3CC3CCOCC3)c2)c2ccc(C)o2)c(N2CCCCC2)c1 (centres unmarked) (as salt: sodium) [Cpd. 113, N-{[4-methyl-2-(piperidin-1-yl)phenyl](5-methylfuran-2-yl)methyl}-2-[1-(oxan-4-ylmethyl)-1H-indol-5-yl]acetamide]",67
5,"Cc1ccc(C(NC(=O)C2(c3ccc4c(c3)OCS(=O)(=O)N4C)CC2)c2ccc(C)o2)c(Br)c1 (centres unmarked) (as salt: HCl) [Cpd. 173, N-[(2-bromo-4-methylphenyl)(5-methylfuran-2-yl)methyl]-1-(1-methyl-2,2-dioxo-1,3-dihydro-4,2,1-benzoxathiazin-6-yl)cyclopropane-1-carboxamide]",71
6,"Cc1ccc(C(NC(=O)C2(c3ccc4c(c3)C(C)(C)C(=O)N4)CC2)c2ccc(C)o2)c(C)c1 (centres unmarked) (as salt: HCl) [Cpd. 146, 1-(3,3-dimethyl-2-oxo-2,3-dihydro-1H-indol-5-yl)-N-[(2,4-dimethylphenyl)(5-methylfuran-2-yl)methyl]cyclopropane-1-carboxamide]",82
7,"Cc1ccc(C(NC(=O)Cc2cc(C)c3c(c2)CC(=O)N3)c2ccc(C)o2)c(N2CCCCC2)c1 (centres unmarked) (as salt: HCl) [Cpd. 54, N-{[4-methyl-2-(piperidin-1-yl)phenyl](5-methylfuran-2-yl)methyl}-2-(7-methyl-2-oxo-2,3-dihydro-1H-indol-5-yl)acetamide]",237
8,"Cc1ccc(C(NC(=O)Cc2ccc3c(c2)C(C)(O)C(=O)N3C)c2ccc(C)o2)c(N2CCCCC2)c1 (centres unmarked) (as salt: HCl) [Cpd. 39, 2-(3-hydroxy-1,3-dimethyl-2-oxo-2,3-dihydro-1H-indol-5-yl)-N-{[4-methyl-2-(piperidin-1-yl)phenyl](5-methylfuran-2-yl)methyl}acetamide]",103
9,"Cc1ccc(C(NC(=O)C2(c3ccc4c(c3)CS(=O)(=O)N4CC3CCOCC3)CC2)c2ccc(C)o2)c(Br)c1 (centres unmarked) (as salt: HCl) [Cpd. 163, N-[(2-bromo-4-methylphenyl)(5-methylfuran-2-yl)methyl]-1-[1-(oxan-4-ylmethyl)-2,2-dioxo-1,3-dihydro-2,1-benzothiazol-5-yl]cyclopropane-1-carboxamide]",85

# Other lines, results leading:
row,melting point [°C],Structure (SMILES)
1,134,"CSc1ccc2cc(CC(=O)NC(c3ccc(C)o3)c3ccc(C)cc3N3CCCCC3)ccc2c1 (centres unmarked) (as salt: HCl) [Cpd. 91, N-{[4-methyl-2-(piperidin-1-yl)phenyl](5-methylfuran-2-yl)methyl}-2-[6-(methylsulfanyl)naphthalen-2-yl]acetamide]"
2,99,"Cc1ccc(C(NC(=O)Cc2ccc3[nH]cc(CO)c3c2)c2ccc(C)o2)c(N2CCCCC2)c1 (centres unmarked) (as salt: HCl) [Cpd. 58, 2-[3-(hydroxymethyl)-1H-indol-5-yl]-N-{[4-methyl-2-(piperidin-1-yl)phenyl](5-methylfuran-2-yl)methyl}acetamide]"
3,155,"Cc1ccc(C(NC(=O)Cc2cccc3c2CN(S(C)(=O)=O)C3)c2ccc(C)o2)c(N2CCCCC2)c1 (centres unmarked) (as salt: HCl) [Cpd. 50, 2-(2-methanesulfonyl-2,3-dihydro-1H-isoindol-4-yl)-N-{[4-methyl-2-(piperidin-1-yl)phenyl](5-methylfuran-2-yl)methyl}acetamide]"
4,192,"Cc1ccc(C(NC(=O)C2(c3ccc4c(c3)C(=O)C(=O)N4)CC2)c2ccc(C)o2)c(C)c1 (centres unmarked) (as salt: HCl) [Cpd. 125, N-[(2,4-dimethylphenyl)(5-methylfuran-2-yl)methyl]-1-(2,3-dioxo-2,3-dihydro-1H-indol-5-yl)cyclopropane-1-carboxamide]"
5,189,"CCOc1nc2cc(CC(=O)NC(c3ccccc3)c3ccc(C)cc3Br)ccc2[nH]1 (centres unmarked) (as salt: HCl) [Cpd. 90, N-[(2-bromo-4-methylphenyl)(phenyl)methyl]-2-(2-ethoxy-1H-1,3-benzodiazol-5-yl)acetamide]"
6,143,"Cc1ccc(C(NC(=O)Cc2ccc3c(c2)CN(S(C)(=O)=O)C3)c2ccc(Cl)o2)c(N2CCCCC2)c1 (centres unmarked) (as salt: HCl) [Cpd. 79, N-[(5-chlorofuran-2-yl)[4-methyl-2-(piperidin-1-yl)phenyl]methyl]-2-(2-methanesulfonyl-2,3-dihydro-1H-isoindol-5-yl)acetamide]"
7,74,"Cc1ccc(C(NC(=O)Cc2ccc3c(c2)CCC3=O)c2ccc(C)o2)c(N2CCCCC2)c1 (centres unmarked) (as salt: HCl) [Cpd. 51, N-{[4-methyl-2-(piperidin-1-yl)phenyl](5-methylfuran-2-yl)methyl}-2-(1-oxo-2,3-dihydro-1H-inden-5-yl)acetamide]"

# Target: T1, human RORγt (Homo sapiens, UniProt P51449)
# T1 construct: the full-length cDNA of human RORγt; expressed in transfected cells; host or cells: COS-7 (monkey kidney)
# T1 sequence (P51449 1-497 isoform P51449-2): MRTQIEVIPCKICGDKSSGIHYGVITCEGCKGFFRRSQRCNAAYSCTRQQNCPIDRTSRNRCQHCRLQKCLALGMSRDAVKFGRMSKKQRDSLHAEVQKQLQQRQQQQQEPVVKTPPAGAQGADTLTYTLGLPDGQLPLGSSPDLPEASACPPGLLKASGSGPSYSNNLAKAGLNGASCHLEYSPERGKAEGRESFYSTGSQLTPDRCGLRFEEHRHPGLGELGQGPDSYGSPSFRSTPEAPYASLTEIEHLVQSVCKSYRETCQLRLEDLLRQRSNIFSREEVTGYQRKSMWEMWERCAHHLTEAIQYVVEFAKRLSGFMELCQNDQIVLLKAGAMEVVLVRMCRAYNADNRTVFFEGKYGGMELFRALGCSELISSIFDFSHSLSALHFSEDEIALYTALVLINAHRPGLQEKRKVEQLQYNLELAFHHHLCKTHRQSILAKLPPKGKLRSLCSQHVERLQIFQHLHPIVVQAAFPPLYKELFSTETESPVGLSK
# Assay: RORE Luciferase/RORγt transactivation assay
# Format: cell-based
# Settings: COS-7 cells transfected with human IL-17 promoter luciferase reporter and RORγt plasmid; 20 h with compound; read-out: IC50, RORγt activity inhibition
# Procedure: It is well known that RORγ binds to a conserved non-coding sequence (CNS) enhancer element in the IL-17 promoter.
# Culture medium was changed every 2 days.
# The 4.3 Kb human IL-17 promoter containing the RORγ-specific CNS enhancer element was PCR amplified from human genomic DNA and cloned into a pGL3-TKLuc2Cp reporter plasmid.
# The luciferase reporter plasmid and the RORγt overexpression plasmid were transfected into COS-7 cell line using 4 μLJetPEI™/μg of DNA. Briefly, 150 ng of DNA (ration ½ between RORE-Tk Luc2Cp and cDNA RORγt or the empty vector for the negative control) was served to transfect adherent COS-7 cells in a […] culture flask, in complete medium (see cos-7 cell line culture).
# Cells were then detached (using trypsin) and washed by centrifugation at 300 g for 10 minutes. Cell pellet was resuspended in serum free/phenol red free DMEM and seeded in 384 well plates at a density of 10000 cells/well and then incubated for 4 h at 37° C.
# Compounds were dissolved in 100% DMSO to obtain 10 mM stock solutions. For each compound, test concentrations were diluted in serum free/phenol red free DMEM using the Genesis Freedom 200™ (TECAN) and added to the cells to obtain a 0.3% DMSO final concentration (in a final volume of 40 μL per well).
# The luciferase activity was then measured with 40 μL/well steady-Glo Luciferase assay system (Promega, Madison, Wis.) and after incubation at room temperature for 30 minutes. The luminescence was estimated using the Ultra384 reader (TECAN). Data were collected and analyzed using GraphPad Prism software (GraphPad Software V5.02, San Diego Calif. USA). IC50 in μM and Emax in % were reported for each compound.
row,Structure (SMILES),IC50 [nM]
1,"Cc1ccc(C(NC(=O)Cc2ccc3c(c2)OCS(=O)(=O)N3)c2ccc(C)o2)c(Br)c1 (centres unmarked) [Cpd. 150, N-[(2-bromo-4-methylphenyl)(5-methylfuran-2-yl)methyl]-2-(2,2-dioxo-1,3-dihydro-4,2,1-benzoxathiazin-6-yl)acetamide]",100 to 1000
2,"Cc1ccc(C(NC(=O)C2(c3ccc4c(c3)OCS(=O)(=O)N4)CC2)c2ccc(C)o2)c(N(C)C)c1 (centres unmarked) [Cpd. 148, N-{[2-(dimethylamino)-4-methylphenyl](5-methylfuran-2-yl)methyl}-1-(2,2-dioxo-1,3-dihydro-4,2,1-benzoxathiazin-6-yl)cyclopropane-1-carboxamide]",100 to 1000
3,"Cc1ccc(C(NC(=O)C2(c3ccc4c(c3)OCS(=O)(=O)N4)CC2)c2ccc(C)o2)c(C(F)(F)F)c1 (centres unmarked) [Cpd. 171, 1-(2,2-dioxo-1,3-dihydro-4,2,1-benzoxathiazin-6-yl)-N-{[4-methyl-2-(trifluoromethyl)phenyl](5-methylfuran-2-yl)methyl}cyclopropane-1-carboxamide]",10 to 100

# Further lines, results first:
row,IC50 [nM],Structure (SMILES)
1,10 to 100,"Cc1ccc(C(NC(=O)C2(c3ccc4c(ccn4CCO)c3)CC2)c2ccc(C)o2)c(C)c1 (centres unmarked) [Cpd. 69, N-[(2,4-dimethylphenyl)(5-methylfuran-2-yl)methyl]-1-[1-(2-hydroxyethyl)-1H-indol-5-yl]cyclopropane-1-carboxamide]"
2,100 to 1000,"Cc1ccc(C(NC(=O)C2(c3ccc4c(c3)OCO4)CC2)c2ccc(C)o2)c(N2CCCCC2)c1 (centres unmarked) [Cpd. 164, 1-(2H-1,3-benzodioxol-5-yl)-N-{[4-methyl-2-(piperidin-1-yl)phenyl](5-methylfuran-2-yl)methyl}cyclopropane-1-carboxamide]"
3,10 to 100,"Cc1ccc(C(NC(=O)C2(c3ccc4c(c3)CS(=O)(=O)N4C)CC2)c2ccc(C)o2)c(N(C)C)c1 (centres unmarked) [Cpd. 133, N-{[2-(dimethylamino)-4-methylphenyl](5-methylfuran-2-yl)methyl}-1-(1-methyl-2,2-dioxo-1,3-dihydro-2,1-benzothiazol-5-yl)cyclopropane-1-carboxamide]"
4,10 to 100,"Cc1ccc(C(NC(=O)C2(c3ccc4[nH]cc(C(C)(C)CO)c4c3)CC2)c2ccc(C)o2)c(C)c1 (centres unmarked) [Cpd. 170, N-[(2,4-dimethylphenyl)(5-methylfuran-2-yl)methyl]-1-[3-(1-hydroxy-2-methylpropan-2-yl)-1H-indol-5-yl]cyclopropane-1-carboxamide]"
